Read-outs that look alike come from different tables or passages of the source.
Tests used:
[1] = tested on: HepG2 (Hepatocellular Carcinoma); assay: Cell viability analysis, hepatic cancer HepG2; assay type: cell-based, human
[2] = tested on: SAS (Tongue squamous cell carcinoma); assay: Cell viability analysis, tongue cancer SAS; assay type: cell-based, human
[3] = tested on: AGS (Gastric Adenocarcinoma); assay: Cell viability analysis, gastric cancer AGS; assay type: cell-based, human
[4] = tested on: A549 (Lung Adenocarcinoma); assay: Cell viability analysis, lung cancer A549; assay type: cell-based, human
[5] = tested on: AsPC-1; assay: Cell viability analysis, pancreatic cancer AsPC-1; assay type: cell-based, human
[6] = tested on: HI650 (Lung Adenocarcinoma); assay: Cell viability analysis, lung cancer HI650; assay type: cell-based, human
[7] = tested on: Hep3B (hepatocellular carcinoma); assay: Cell viability analysis, hepatic cancer Hep3B; assay type: cell-based, human
[8] = tested on: MKN-45 (Gastric Adenocarcinoma); assay: Cell viability analysis, gastric cancer MKN-45; assay type: cell-based, human
[9] = tested on: HCT116 (p53+) (Colorectal Carcinoma)
[10] = tested on: LoVo (Colorectal Adenocarcinoma); assay: Cell viability analysis, colon cancer LoVo; assay type: cell-based, human
[11] = tested on: U-2OS; assay: Cell viability analysis, osteosarcoma U-2OS; assay type: cell-based, human
[12] = tested on: PC3 (p53−) (Prostate Adenocarcinoma); assay: Cell viability analysis, prostate cancer PC3; assay type: cell-based, human
[13] = tested on: TSGH-8301 (Urinary Bladder Carcinoma); assay: Cell viability analysis, bladder cancer TSGH-8301; assay type: cell-based, human
[14] = tested on: NIH: OVCAR-3; assay: Cell viability analysis, ovarian cancer NIH: OVCAR-3; assay type: cell-based, human
[15] = tested on: HeLa (Cervix Adenocarcinoma); assay: Cell viability analysis, cervical cancer HeLa; assay type: cell-based, human
[16] = tested on: A375 (Amelanotic Melanoma); assay: Cell viability analysis, skin cancer A375; assay type: cell-based, human
[17] = tested on: C-33A (Cervical carcinoma); assay: Cell viability analysis, cervical cancer C-33A; assay type: cell-based, human
[18] = tested on: MDA-MB-231 (Mammary Gland, Adenocarcinoma); assay: Cell viability analysis, breast cancer MDA-MB-231; assay type: cell-based, human
[19] = tested on: 786-O (Renal adenocarcinoma); assay: Cell viability analysis, renal cancer 786-O; assay type: cell-based, human
[20] = tested on: BCC (basal cell carcinoma); assay: Cell viability analysis, skin cancer BCC; assay type: cell-based, human; settings: BCC; repeated experiment
[21] = tested on: cancer cell lines; assay: Cell viability analysis (WST-1) on cancer cell lines; assay type: cell-based, human; settings: drug 10 μM, 72 hours, WST-1; Table 3
[22] = tested on: MCF7 (Mammary Gland, Adenocarcinoma); assay: Cell viability analysis, breast cancer MCF7; assay type: cell-based, human; settings: drug 10 μM, 72 hours, WST-1, OD450 nm
[23] = tested on: BxPC-3; assay: Cell viability analysis, pancreatic cancer BxPC-3; assay type: cell-based, human; settings: BxPC-3; repeated experiment
[24] = drug 10 μM, 72 hours, WST-1, OD450 nm

N#C[C@@H]1C[C@@H]2C[C@H]2N1C(=O)[C@@H](N)C12CC3CC(CC(O)(C3)C1)C2 [Saxagliptin (BMS-477118, Onglyza)]
The results of antibiotic drug inhibiting cancer cell lines (cell viability analysis), HepG2 [1]: 118 | The results of antibiotic drug inhibiting cancer cell lines (cell viability analysis), SAS [2]: 62.71 | The results of antibiotic drug inhibiting cancer cell lines (cell viability analysis), AGS [3]: 121.3 | The results of antibiotic drug inhibiting cancer cell lines (cell viability analysis), A549 [4]: 98.68 | The results of antibiotic drug inhibiting cancer cell lines (cell viability analysis), AsPC-1 [5]: 75.97 | The results of antibiotic drug inhibiting cancer cell lines (cell viability analysis), H1650 [6]: 101.5 | The results of antibiotic drug inhibiting cancer cell lines (cell viability analysis), Hep3B [7]: 122.9 | The results of antibiotic drug inhibiting cancer cell lines (cell viability analysis), MKN-45 [8]: 117.7 | viability [9]: 107% | The results of antibiotic drug inhibiting cancer cell lines (cell viability analysis), LoVo [10]: 82.99 | The results of antibiotic drug inhibiting cancer cell lines (cell viability analysis), U2OS [11]: 62.9 | The results of antibiotic drug inhibiting cancer cell lines (cell viability analysis), PC-3 [12]: 112 | The results of antibiotic drug inhibiting cancer cell lines (cell viability analysis), TSGH-8301 [13]: 119.6 | The results of antibiotic drug inhibiting cancer cell lines (cell viability analysis), NIH-OVCAR-3 [14]: 114.2 | The results of antibiotic drug inhibiting cancer cell lines (cell viability analysis), HeLa [15]: 114.7 | The results of antibiotic drug inhibiting cancer cell lines (cell viability analysis), A375 [16]: 111.4 | The results of antibiotic drug inhibiting cancer cell lines (cell viability analysis), C-33A [17]: 104.4 | The results of antibiotic drug inhibiting cancer cell lines (cell viability analysis), MDA-MB231 [18]: 102 | The results of antibiotic drug inhibiting cancer cell lines (cell viability analysis), 786-O [19]: 98.33

CC1(C)S[C@@H]2[C@H](NC(=O)[C@H](N)c3ccc(O)cc3)C(=O)N2[C@H]1C(=O)[O-].[Na+] [Amoxicillin sodium (Amox), Amoxicillin sodium]
The results of antibiotic drug inhibiting cancer cell lines (cell viability analysis), HepG2 ([1]; HepG2, repeated experiment): 124.5 | cell viability (survival rate), HepG2 [1, 24]: 80.8 | The results of antibiotic drug inhibiting cancer cell lines (cell viability analysis), SAS ([2]; SAS, repeated experiment): 66.94 | The results of antibiotic drug inhibiting cancer cell lines (cell viability analysis), AGS ([3]; AGS, repeated experiment): 128.2 | cell viability (survival rate), AGS [3, 24]: 51.2 | cell viability (survival rate), A549 [4, 24]: 60.6 | The results of antibiotic drug inhibiting cancer cell lines (cell viability analysis), AsPC-1 ([5]; AsPC-1, repeated experiment): 88.13 | The results of antibiotic drug inhibiting cancer cell lines (cell viability analysis), H1650 ([6]; H1650, repeated experiment): 87.81 | cell viability (survival rate), H1650 [6, 24]: 43.3 | The results of antibiotic drug inhibiting cancer cell lines (cell viability analysis), MKN-45 ([8]; MKN-45, repeated experiment): 110.7 | cell viability (survival rate), MKN-45 [8, 24]: 63.2 | viability [9]: 112% | The results of antibiotic drug inhibiting cancer cell lines (cell viability analysis), BCC [20]: 115.1 | cell viability (survival rate), LoVo [10, 24]: 69.1 | The results of antibiotic drug inhibiting cancer cell lines (cell viability analysis), U2OS ([11]; U2OS, repeated experiment): 65.21 | The results of antibiotic drug inhibiting cancer cell lines (cell viability analysis), PC-3 ([12]; PC-3, repeated experiment): 127.2 | cell viability (survival rate), PC3 [12, 24]: 74.8 | The results of antibiotic drug inhibiting cancer cell lines (cell viability analysis), TSGH-8301 ([13]; TSGH-8301, repeated experiment): 129.6 | cell viability (survival rate), TSGH [13, 24]: 45.4 | inhibition effect on different cancer cell lines [21]: significant inhibition effect | The results of antibiotic drug inhibiting cancer cell lines (cell viability analysis), HeLa ([15]; HeLa, repeated experiment): 112.6 | cell viability (survival rate), HeLa [15, 24]: 81.0 | cell viability (survival rate), MCF7 [22]: 60.4 | The results of antibiotic drug inhibiting cancer cell lines (cell viability analysis), BxPC-3 [23]: 71.08 | The results of antibiotic drug inhibiting cancer cell lines (cell viability analysis), A375 ([16]; A375, repeated experiment): 115.9 | cell viability (survival rate), A375 [16, 24]: 78.5

From patent US10105357B2, “Indication of antibiotic drugs for preparation of cancer inhibition pharmaceutical composition” (LAUNX BIOMEDICAL CO., LTD., priority 2014, dated 2018)
